# Values joined by “and” are separate entries in the source; they are usually repeats but may differ in a detail not shown here. Equal values may be shown once. Read-outs that look alike come from different tables or passages of the source.
# Legend:
# B16.F10 tumor [1] = assay: Efficacy and tolerability in B16.F10 murine melanoma model (Example 43); format: in vivo, mouse
# Method: Refer to table for detailed description of formulations.
# Tumor volume was calculated with the following equation: (width×width×length)/2 mm^3.
# HCT-116 tumor = assay: In vivo efficacy in HCT-116 colon xenograft model (Example 44); design: species or system mouse; conditions: 30 mg/kg IV weekly×2
# Method: HCT-116 cells were grown in culture to confluency in McCoy's 5a medium containing 10% FBS and 1% penicillin/streptomycin and then resuspended in McCoy's 5a (passage 4). This suspension of HCT-116 cells (density=3.7×10^6 cells/mL) was implanted subcutaneously above the right hind leg of male CD-1 nude mice on day 1.
# SK-OV-3 tumor = assay: In vivo efficacy in SK-OV-3 ovarian human xenograft model (Example 45); design: species or system mouse
# Method: SK-OV-3 cells were grown in culture to confluency in RPMI medium containing 10% FBS and 1% penicillin/streptomycin and then resuspended in RPMI (passage 4) for implantation into mice. This suspension of SK-OV-3 cells (density=30×10^6 cells/mL) was implanted into the mammary gland of female CD-1 nude mice on Day 1. […]
# MDA-MB-435 tumor [2] = assay: In vivo efficacy in MDA-MB-435 melanoma human xenograft model (Example 46); design: species or system mouse
# Method: MDA-MB-435 cells were grown in culture to confluency in RPMI medium containing 10% FBS and 1% penicillin/streptomycin and then resuspended in RPMI (passage 4) for implantation into mice. A volume of 0.1 mL containing 4.0×10^6 cells MDA-MB-435 cells were implanted into the mammary gland of female CD-1 nude mice on Day 1.
# murine melanoma tumor = assay: Efficacy and survival in aggressive murine melanoma model at MTD (Example 92); format: in vivo, mouse; conditions: every other week dosing at MTD
# Method: Thus, the sustained release properties of a particle according to exemplary particle 1 supports less frequent dosing of patients. Methods: Tumor-bearing mice were injected with a particle according to exemplary particle 1 or docetaxel at their respective MTD. See, for example, FIGS. 6a and 6b.
# MDA-MB-435 tumor [3] = assay: MDA-MB-435 breast xenograft model, delayed treatment (Example 93); format: in vivo, mouse
# Excerpt: See, for example, FIG. 7.
# B16.F10 tumor [4] = assay: Efficacy and tolerability in mouse melanoma model B16.F10 (Example 58)
# Method: B16.F10 cells were grown in culture to 85-90% confluency in MEM-alpha medium supplemented with 10% fetal bovine serum (FBS) and 1% penicillin/streptomycin. Cells were removed from the culture flask using 0.05% trypsin (passage=4), re-suspended in PBS (density=10×10^6 cells/mL) and were implanted subcutaneously (1×10^6 cells in 100 μL MEM-alpha medium/mouse) into the right flank of male C57BL/6 mice on day 1.
# Body weight and tumor volume were measured three times a week. In addition, animals were also monitored for any morbidity and adverse effects three times a week.
# Tumor volume was calculated with (width×width×length)/2 mm^3 formula. Efficacy was determined by tumor growth inhibition (TGI), tumor growth delay (TGD) and survival. Tumor growth inhibition (TGI) is represented as % and calculated as (1−(treated tumor volume/control tumor volume))×100 when the control group mean tumor volume reached ≧3000 mm^3. Tumor growth delay (TGD) is calculated by subtracting the day when the vehicle treated group reached the maximum tumor size 3000 mm^3 from the day when the treatment group tumor size reached 3000 mm^3. The criterion at which a mouse was removed from the study was tumor volume ≧3000 mm^3.
# B16.F10 tumor [5] = assay: Efficacy and tolerability in mouse melanoma model B16.F10 (Example 61)
# Method: Briefly, ATP and oxygen in viable cells reduce luciferin to oxyluciferin in the presence of luciferase to produce energy in the form of light. B16.F10 cells were grown in culture to 85-90% confluency in MEM-alpha medium supplemented with fetal bovine serum (FBS) and 1% penicillin/streptomycin. Cells were removed from the flask using 0.05% trypsin (passage=4), re-suspended in PBS (density=10×10^6 cells/mL) and were implanted subcutaneously (1×10^6 cells in 100 μL PBS/mouse) into the right flank of male C57BL/6 mice on day 1.
# The treatments were administered IV into the tail vein at a dose volume of 10 ml/kg, beginning on post-implantation day 5, when the mean tumor volume was ca. 60 mm^3 Animals were monitored for any morbidity and adverse effects three times a week. In addition, body weight and tumor volume were also measured three times a week.
# Tumor volume was calculated with (width×width×length)/2 mm^3 formula. Efficacy was determined by tumor growth inhibition (TGI), tumor growth delay (TGD) and survival. Tumor growth inhibition (TGI) is represented as % and calculated as (1−(treated tumor volume/control tumor volume))×100 when the control group mean tumor volume reached ≧3000 mm^3 Tumor growth delay (TGD) is calculated by subtracting the day when the vehicle treated group reached the maximum tumor size 3000 mm^3 from the day when the treatment group tumor size reached 3000 mm^3. The criterion at which a mouse was removed from the study was tumor volume ≧3000 mm^3.
# H1299 tumor = assay: Efficacy and tolerability in non-small cell lung carcinoma model H1299 (Example 60); conditions: for Tumor growth inhibition (% TGI): 30 mg/kg IV 1/wk×2, 30 mg/kg
# Method: H1299 cells were grown in culture to 85-90% confluency in RPMI medium supplemented with 10% fetal bovine serum (FBS), 1% glutamine and 1% penicillin/streptomycin. Cells were removed from the culture flask using 0.05% trypsin (passage=4), re-suspended in RPMI medium (density=50×10^6 cells/mL) and were implanted subcutaneously (5×10^6 cells in 100 μL RPMI medium/mouse) into the mammary fat pad area of male nu/nu mice on day 1.
# The treatments were administered IV into the tail vein at a dose volume of 10 and 20 mL/kg for 30 and 60 mg/kg respectively, beginning on post-implantation day 30 when the mean tumor volume was ca. 170 mm^3 (small tumor group), and on day 37 when the mean tumor volume was ca. 440 mm^3 (large tumor group). Body weight and tumor volume were measured for three times a week during the dosing period and twice a week thereafter. In addition, animals were also monitored for any morbidity and adverse effects for three times a week during the dosing period and twice a week thereafter.
# Tumor volume was calculated with (width×width×length)/2 mm^3 formula. Efficacy was determined by tumor growth inhibition (TGI), tumor growth delay (TGD) and survival. Tumor growth inhibition (TGI) is represented as % and calculated as (1−(treated tumor volume/control tumor volume))×100 when the control group mean tumor volume reached ≧1000 mm^3 Tumor growth delay (TGD) is calculated by subtracting the day when the vehicle treated group reached the maximum tumor size 1000 mm^3 from the day when the treatment group tumor size reached 1000 mm^3.
# [6] = 15 mg/kg IV q3dq4dx3, listed as Docetaxel
# [7] = 15 mg/kg IV three times, once every week
# [8] = 30 mg/kg IV 1/biwk×3, listed as free docetaxel
# [9] = 30 mg/kg IV 1/wk×3, listed as free docetaxel
# [10] = large tumor group, 30 mg/kg 1/wk×2
# [11] = large tumor group, 60 mg/kg 1/wk×2
# [12] = small tumor group, 30 mg/kg 1/wk×2
# [13] = small tumor group, 60 mg/kg 1/wk×2
# Method for ADR-RES tumor: ADR-RES cells were grown in culture to 85-90% confluency in RPMI medium supplemented with 10% fetal bovine serum (FBS), 1% glutamine and 1% penicillin/streptomycin.
# The treatments were administered IV into the tail vein at a dose volume of 10 and 20 mL/kg for 30 and 60 mg/kg respectively, beginning on post-implantation day 47, when the mean tumor volume was ca. 150 mm^3. Body weight and tumor volume were measured for three times a week during the dosing period and twice a week thereafter. In addition, animals were also monitored for any morbidity and adverse effects for three times a week during the dosing period and twice a week thereafter.
# Tumor volume was calculated with (width×width×length)/2 mm^3 formula. Efficacy was determined by tumor growth inhibition (TGI), tumor growth delay (TGD) and survival. Tumor growth inhibition (TGI) is represented as % and calculated as (1−(treated tumor volume/control tumor volume))×100 when the control group mean tumor volume reached ≧1000 mm^3. Tumor growth delay (TGD) is calculated by subtracting the day when the vehicle treated group reached the maximum tumor size 1000 mm^3 from the day when the treatment group tumor size reached 1000 mm^3.
smiles,measurement,setting,value
"CC(=O)O[C@@]12CO[C@@H]1C[C@H](O)[C@@]1(C)C(=O)[C@H](O)C3=C(C)[C@@H](OC(=O)[C@H](O)[C@@H](NC(=O)OC(C)(C)C)c4ccccc4)C[C@@](O)([C@@H](OC(=O)c4ccccc4)[C@H]21)C3(C)C [Free docetaxel, docetaxel]",Tumor growth inhibition (TGI),B16.F10 tumor [1]; 15 mg/kg IV q3dq4dx3,90%
same,Maximum body weight loss,B16.F10 tumor [1]; [6],11% and 12%
same,Tumor growth delay (TGD),B16.F10 tumor [1]; [6],11 days and 12 days
same,Maximum body weight loss,B16.F10 tumor [1]; 15 mg/kg IV q4dq3dx3,11%
same,Tumor growth delay (TGD),B16.F10 tumor [1]; 15 mg/kg IV q4dq3dx3,11 days
same,Tumor growth inhibition (TGI),B16.F10 tumor [1]; 15 mg/kg IV q4dq3dx3,90%
same,Maximum body weight loss,B16.F10 tumor [1]; [7],11%
same,Tumor growth delay (TGD),B16.F10 tumor [1]; [7],11 days
same,Tumor growth inhibition (TGI),B16.F10 tumor [1]; [7],approximately 90%
same,Maximum body weight loss,B16.F10 tumor [1]; 30 mg/kg IV q7dx3,11%
same,Tumor growth delay (TGD),B16.F10 tumor [1]; 30 mg/kg IV q7dx3,17 days
same,Tumor growth inhibition (TGI),B16.F10 tumor [1]; 30 mg/kg IV q7dx3,90%
same,Day tumor volume end point (3000 mm^3) reached,B16.F10 tumor [1]; 30 mg/kg q7dx3,37 days
same,Tumor growth delay (TGD),B16.F10 tumor [1]; 60 mg/kg IV q14dx2,11 days
same,Tumor growth inhibition (TGI),B16.F10 tumor [1]; 60 mg/kg IV q14dx2,71%
same,Maximum body weight loss,"B16.F10 tumor [1]; 60 mg/kg IV q14dx2, listed as Docetaxel",0%
same,Maximum body weight loss,"B16.F10 tumor [1]; 60 mg/kg IV q14dx2, listed as docetaxel",did not show any body weight loss
same,Day tumor volume end point (3000 mm^3) reached,B16.F10 tumor [1]; 60 mg/kg q14dx2,29 days
same,Maximum body weight loss,HCT-116 tumor,14%
same,Tumor growth inhibition (TGI),HCT-116 tumor,88%
same,TGD,HCT-116 tumor; end point 1000 mm^3,22 days
same,Tumor growth delay (TGD),SK-OV-3 tumor; 15 mg/kg IV weekly×2,18 days
same,Ataxia,SK-OV-3 tumor; 30 mg/kg IV weekly×2,did not cause ataxia
same,Maximum body weight loss,SK-OV-3 tumor; 30 mg/kg IV weekly×2,13%
same,Tumor growth delay (TGD),SK-OV-3 tumor; 30 mg/kg IV weekly×2,42 days
same,Body weight loss,SK-OV-3 tumor; 60 mg/kg IV weekly×2,greater than 20%
same,Maximum body weight loss,MDA-MB-435 tumor [2]; 15 mg/kg IV Days 21 and 28,10%
same,Maximum body weight loss,MDA-MB-435 tumor [2]; 30 mg/kg IV Days 21 and 28,14%
same,Ataxia,MDA-MB-435 tumor [2]; 30 mg/kg IV weekly×2,did not cause ataxia
same,Body weight loss,MDA-MB-435 tumor [2]; 60 mg/kg IV Days 21 and 28 (mean tumor 150 mm^3),greater than 20%
same,Ataxia,"MDA-MB-435 tumor [2]; 60 mg/kg IV weekly×2, listed as docetaxel",developed ataxia
same,Ataxia,"MDA-MB-435 tumor [2]; 60 mg/kg IV weekly×2, listed as free docetaxel",Ataxia was observed four days after the second treatment
same,Tumor growth suppression,murine melanoma tumor,not sufficient to suppress tumor growth
same,Effect on tumors allowed to grow to 500 mm^3,MDA-MB-435 tumor [3],unable to suppress tumor growth over this time period
same,Day mean tumor volume endpoint (≧1000 mm^3) reached,ADR-RES tumor; 30 mg/kg IV 1/biwk×3,99 days
same,Day of 50% survival,ADR-RES tumor; 30 mg/kg IV 1/biwk×3,102 days
same,Hind limb paralysis,ADR-RES tumor; 30 mg/kg IV 1/biwk×3,did not cause any significant body weight loss (<10%) or hind limb paralysis
same,Increase in TGD,ADR-RES tumor; 30 mg/kg IV 1/biwk×3,0%
same,Maximum body weight loss,ADR-RES tumor; 30 mg/kg IV 1/biwk×3,9%
same,Tumor growth delay (TGD),ADR-RES tumor; 30 mg/kg IV 1/biwk×3,0 days
same,Tumor growth inhibition (% TGI),ADR-RES tumor; 30 mg/kg IV 1/biwk×3,0%
same,Tumor growth delay (TGD),ADR-RES tumor; [8],no TGD
same,Tumor growth inhibition (% TGI),ADR-RES tumor; [8],0%
same,Day mean tumor volume endpoint (≧1000 mm^3) reached,ADR-RES tumor; 30 mg/kg IV 1/wk×2,109 days
same,Day of 50% survival,ADR-RES tumor; 30 mg/kg IV 1/wk×2,106 days
same,Hind limb paralysis,ADR-RES tumor; 30 mg/kg IV 1/wk×2,did not cause any significant body weight loss (<10%) or hind limb paralysis
same,Increase in TGD,ADR-RES tumor; 30 mg/kg IV 1/wk×2,13%
same,Maximum body weight loss,ADR-RES tumor; 30 mg/kg IV 1/wk×2,6%
same,Tumor growth delay (TGD),ADR-RES tumor; 30 mg/kg IV 1/wk×2,7 days
same,Tumor growth inhibition (% TGI),ADR-RES tumor; 30 mg/kg IV 1/wk×2,23%
same,Tumor growth inhibition (% TGI),"ADR-RES tumor; 30 mg/kg IV 1/wk×2, listed as free docetaxel",23%
same,Hind limb paralysis,ADR-RES tumor; 60 mg/kg IV 1/biwk×3,severe hind limb paralysis
same,Maximum body weight loss,ADR-RES tumor; 60 mg/kg IV 1/biwk×3,21%
same,Day mean tumor volume endpoint (≧1000 mm^3) reached,ADR-RES tumor; 60 mg/kg IV 1/wk×2,106 days
same,Day of 50% survival,ADR-RES tumor; 60 mg/kg IV 1/wk×2,106 days
same,Hind limb paralysis,ADR-RES tumor; 60 mg/kg IV 1/wk×2,hind limb paralysis after the 2nd injection followed by recovery
same,Increase in TGD,ADR-RES tumor; 60 mg/kg IV 1/wk×2,7%
same,Maximum body weight loss,ADR-RES tumor; 60 mg/kg IV 1/wk×2,23%
same,Tumor growth delay (TGD),ADR-RES tumor; 60 mg/kg IV 1/wk×2,4 days
same,Tumor growth inhibition (% TGI),ADR-RES tumor; 60 mg/kg IV 1/wk×2,14%
same,Tumor growth inhibition (% TGI),"ADR-RES tumor; 60 mg/kg IV 1/wk×2, listed as free docetaxel",14%
same,Day of 0% survival,B16.F10 tumor [4]; 30 mg/kg 1/wk×3,45 days
same,Day of 50% survival,B16.F10 tumor [4]; 30 mg/kg 1/wk×3,40 days
same,Day mean tumor volume endpoint (≧3000 mm^3) reached,B16.F10 tumor [4]; 30 mg/kg IV 1/wk×3,43 days
same,Increase in TGD,B16.F10 tumor [4]; 30 mg/kg IV 1/wk×3,115%
same,Maximum body weight loss,B16.F10 tumor [4]; 30 mg/kg IV 1/wk×3,12%
same,Tumor growth delay (TGD),B16.F10 tumor [4]; 30 mg/kg IV 1/wk×3,23 days
same,Tumor growth inhibition (% TGI),B16.F10 tumor [4]; 30 mg/kg IV 1/wk×3,92%
same,Maximum body weight loss,B16.F10 tumor [4]; [9],did not cause any significant body weight loss
same,Tumor growth inhibition (% TGI),B16.F10 tumor [4]; [9],92%
same,Day mean tumor volume endpoint (≧3000 mm^3) reached,B16.F10 tumor [5]; 15 mg/kg IV 1/wk×3,29 days
same,Day of 0% survival,B16.F10 tumor [5]; 15 mg/kg IV 1/wk×3,43 days
same,Day of 50% survival,B16.F10 tumor [5]; 15 mg/kg IV 1/wk×3,29 days
same,Increase in TGD,B16.F10 tumor [5]; 15 mg/kg IV 1/wk×3,45%
same,Maximum body weight loss,B16.F10 tumor [5]; 15 mg/kg IV 1/wk×3,2%
same,Tumor growth delay (TGD),B16.F10 tumor [5]; 15 mg/kg IV 1/wk×3,9 days
same,Tumor growth inhibition (% TGI),B16.F10 tumor [5]; 15 mg/kg IV 1/wk×3,75%
same,Tumor growth inhibition (% TGI),"B16.F10 tumor [5]; 15 mg/kg IV 1/wk×3, listed as free docetaxel",75%
same,Maximum body weight loss,B16.F10 tumor [5]; 30 mg/kg IV 1/wk×3,12% and 14%
same,Tumor growth delay (TGD),B16.F10 tumor [5]; 30 mg/kg IV 1/wk×3,23 days and 18 days
same,Tumor growth inhibition (% TGI),B16.F10 tumor [5]; 30 mg/kg IV 1/wk×3,92% and 81%
same,Day mean tumor volume endpoint (≧3000 mm^3) reached,B16.F10 tumor [5]; [9],43 days and 38 days
same,Day of 0% survival,B16.F10 tumor [5]; [9],45 days and 43 days
same,Day of 50% survival,B16.F10 tumor [5]; [9],40 days and 36 days
same,Increase in TGD,B16.F10 tumor [5]; [9],115% and 90%
same,Tumor growth delay (TGD),B16.F10 tumor [5]; [9],23 days and 18 days
same,Tumor growth inhibition (% TGI),B16.F10 tumor [5]; [9],92% and 81%
same,Day mean tumor volume endpoint (≧1000 mm^3) reached,H1299 tumor; [10],63 days
same,Day of 0% survival,H1299 tumor; [10],80 days
same,Day of 50% survival,H1299 tumor; [10],61 days
same,Hind limb paralysis,H1299 tumor; [10],did not cause any significant body weight loss or hind limb paralysis
same,Increase in TGD,H1299 tumor; [10],43%
same,Maximum body weight loss,H1299 tumor; [10],19%
same,Tumor growth delay (TGD),H1299 tumor; [10],19 days
same,Tumor shrinkage,H1299 tumor; [10],no tumor shrinkage
same,Tumor growth inhibition (% TGI),H1299 tumor; large tumor group,49%
same,Tumor growth inhibition (% TGI),"H1299 tumor; large tumor group, listed as free docetaxel",49%
same,Hind limb paralysis,H1299 tumor; [11],severe hind limb paralysis
same,Maximum body weight loss,H1299 tumor; [11],significant body weight loss
same,Day mean tumor volume endpoint (≧1000 mm^3) reached,H1299 tumor; [12],61 days
same,Day of 0% survival,H1299 tumor; [12],68 days
same,Day of 50% survival,H1299 tumor; [12],56 days
same,Hind limb paralysis,H1299 tumor; [12],did not cause any significant body weight loss or hind limb paralysis
same,Increase in TGD,H1299 tumor; [12],39%
same,Maximum body weight loss,H1299 tumor; [12],18%
same,Tumor growth delay (TGD),H1299 tumor; [12],17 days
same,Tumor growth inhibition (% TGI),H1299 tumor; small tumor group,64%
same,Tumor growth inhibition (% TGI),"H1299 tumor; small tumor group, listed as free docetaxel",64%
same,Hind limb paralysis,H1299 tumor; [13],severe hind limb paralysis
same,Maximum body weight loss,H1299 tumor; [13],significant body weight loss
